Data taken from patent publication US4885284A, “Dihydropyridine-5-phosphonic acid cyclic propylene ester” (Nissan Chemical Industries Ltd., priority 1986, dated 1989).
Structures can show the parent of a compound that is named as a salt.

Assays:
[1] = system: male spontaneously hypertensive rat (SHR); assay: Antihypertensive effect (systolic blood pressure, tail cuff method, oral, SHR); type: in vivo; conditions: systolic blood pressure at 2, 4, 6 and 8 hours
Protocol: After oral administration of the test compound dissolved in a H2 O-PEG 400 solvent mixture (H2 O:PEG 400 (w/w)=1:3) to the male spontaneously hypertensive rat (SHR), the systolic blood pressure was measured at 2, 4, 6 and 8 hours after the administration of the test compounds by a tail cuff method. Prior to the measurement, rats were warmed at 50° C. for five minutes. The effectively antihypertensive activities were observed also at 8 hours after the administraton of the test compounds. Test 2: Acute toxicity test

[2] = Acute toxicity test (oral LD50); conditions: mouse, in vivo; oral (5% solution), male ddY mice, seven days, Litchfield-Wilcoxon
Protocol: ddY mice (.male., 4 weeks old) were divided into groups of five mice and the test compound dissolved in purified water was administered orally (5% solution) (p.o) to the male ddY mice.
After seven days, LD50 values were calculated from the dead […] recorded in the individual dosage groups by the method of Litchfield-Wilcoxon.

[3] = system: taenia caecum of guinea pig; assay: Calcium antagonistic effect (relaxation of CaCl2-induced contraction in K+-depolarized taenia caecum); type: cell-based; conditions: Cavia porcellus; -log ID50 (M); 50% relaxation relative to maximum relaxation by 10^-4 M papaverine; 37° C, 10 mM CaCl2; read-out: pID50 (calcium antagonistic effect) (converted)
Protocol: 10 mm in situ length of taenia caecum of guinea pig was suspended at a tension of 1 g in a 20 ml organ bath filled with a physiological salt solution (NaCl: 135 mM, KCl: 5 mM etc.).
This solution was bubbled with a gas mixture of 95% O2 -5% CO2 and kept at 37° C. Then, the preparation was depolarized by a K^+ rich solution (NaCl: 40 mM, KCl: 100 mM). After 10-20 minutes equilibration period, 10 mM of CaCl2 was added to the bathing solution. The contraction was produced, and then the test compound applied cumulatively. The relaxation produced was expressed as percentage of the maximum relaxation produced by 10^-4 M papaverine, and the concentration of the compound producing 50% relaxation, i.e. ID50 (M), was calculated.

SMILES | Antihypertensive effect, maximum decrease ([1]; dose 15 mg/kg) [%] | LD50 at 168 h [2] [mg/kg] | IC50 [3] [M] | Antihypertensive effect, maximum decrease ([1]; dose 10 mg/kg) [%] | Antihypertensive effect, maximum decrease ([1]; dose 20 mg/kg) [%]
CC1=C(C(=O)OCCN(Cc2ccccc2)c2ccccc2)C(c2cccc([N+](=O)[O-])c2)C(P2(=O)O[C@H](C)C[C@@H](C)O2)=C(C)N1 (some centres unmarked) [Hydrochloride of Example 7] | 34 | > 600 | 6.76e-09 |  | 
CC1=C(C(=O)OCCN2CCN(C(c3ccccc3)c3ccccc3)CC2)C(c2cccc(Cl)c2Cl)C(P2(=O)OCC(C)(C)CO2)=C(C)N1 (centres unmarked) [Dihydrochloride of Example 2] |  | > 400 | 9.77e-08 | 37 | 
CC1=C(C(=O)OC(C)CN(Cc2ccccc2)c2ccccc2)C(c2cccc([N+](=O)[O-])c2)C(P2(=O)OC(C)(C)CC(C)(C)O2)=C(C)N1 (centres unmarked) [Hydrochloride of Example 4] |  | > 300 | 1.26e-07 |  | 38
CC1=C(C(=O)OCCN(Cc2ccccc2)c2ccccc2)C(c2cccc([N+](=O)[O-])c2)C(P2(=O)OC(C)(C)CC(C)(C)O2)=C(C)N1 (centres unmarked) [Hydrochloride of Example 5] |  | > 300 |  | 40 | 
CC1=C(C(=O)OC(C)CN(Cc2ccccc2)c2ccccc2)C(c2cccc(Cl)c2Cl)C(P2(=O)O[C@H](C)C[C@@H](C)O2)=C(C)N1 (some centres unmarked) [Hydrochloride of Example 6] |  | > 300 | 1.05e-07 | 28 | 
CC1=C(C(=O)OCCCN2CCN(C(c3ccc(F)cc3)c3ccc(F)cc3)CC2)C(c2cccc(Cl)c2Cl)C(P2(=O)OCC(C)(C)CO2)=C(C)N1 (centres unmarked) [Dihydrochloride of Example 3] | 36 | > 400 | 1.74e-07 |  | 
CC1=C(C(=O)OCCN(Cc2ccccc2)c2ccccc2)C(c2cccc([N+](=O)[O-])c2)C(P2(=O)OCC(C)(C)CO2)=C(C)N1 (centres unmarked) [Hydrochloride of Example 1] | 36 | > 600 | 6.76e-09 |  | 
